What all share (type): cell-based, Cutibacterium acnes
One assay deals with C. acnes HL043PA1. The settings on record: C. acnes HL043PA1; RCM broth, anaerobic, 1 × 10^6 CFU per mL, two-fold dilutions 0.5–32 μg/mL, 48 h, OD 600 nm; mean of three replicates. Summed up:
(§1)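 Under anaerobic conditions, bacteria (1 × 10^6 CFU per mL) are challenged for 48 h in RCM with two-fold dilutions from 0.5 to 32 μg per mL. Optical density at 600 nm defines the MIC.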

A further assay concerns C. acnes HL056PA1. The settings on record: C. acnes HL056PA1; RCM broth, anaerobic, 1 × 10^6 CFU per mL, two-fold dilutions 0.5–32 μg/mL, 48 h, OD 600 nm; mean of three replicates. An outline of the steps: as §1
A further assay deals with C. acnes HL072PA1. Conditions: C. acnes HL072PA1; RCM broth, anaerobic, 1 × 10^6 CFU per mL, two-fold dilutions 0.5–32 μg/mL, 48 h, OD 600 nm; mean of three replicates. An outline of the steps:
as §1

For the next assay, the system named is C. acnes HL013PA1. The settings on record: C. acnes HL013PA1; RCM broth, anaerobic, 1 × 10^6 CFU per mL, two-fold dilutions 0.5–32 μg/mL, 48 h, OD 600 nm; mean of three replicates. Summed up:
as §1

The test system of another assay is C. acnes ATCC11827. Conditions: C. acnes ATCC11827; RCM broth, anaerobic, 1 × 10^6 CFU per mL, two-fold dilutions 0.5–32 μg/mL, 48 h, OD 600 nm; mean of three replicates. Summed up: as §1
Another assay concerns C. acnes HL007PA1. Conditions: C. acnes HL007PA1; RCM broth, anaerobic, 1 × 10^6 CFU per mL, two-fold dilutions 0.5–32 μg/mL, 48 h, OD 600 nm; mean of three replicates. An outline of the steps:
as §1

The values below come from publication PMC7168327, “Designed Antimicrobial Peptides for Topical Treatment of Antibiotic Resistant Acne Vulgaris” (Antibiotics, 2020).

In brackets after ≈: the same amount, converted by molar mass. Bridge positions count the residues as written; N and C are the ends. Peptide text beside a SMILES is read from it.

For orientation: MIC means the lowest concentration that inhibits growth of the organism. The low end stands for greater potency, the high end for weaker potency.

Turning to `CC[C@H](C)[C@@H]1NC(=O)CNC(=O)[C@H](CCCCN)NC(=O)[C@H](Cc2ccc(O)cc2)NC(=O)[C@@H]2CSSC[C@H](NC1=O)C(=O)N[C@@H](Cc1ccc(O)cc1)C(=O)N[C@@H](CCCCN)C(=O)N[C@@H](CCCCN)C(=O)N[C@H](C(=O)N[C@@H](CCCCN)C(N)=O)CSSC[C@H](NC(=O)[C@H](Cc1c[nH]c3ccccc13)NC(=O)[C@@H](N)CCCNC(=N)N)C(=O)N[C@@H](Cc1ccccc1)C(=O)N[C@@H](CCCCN)C(=O)N[C@@H](C(C)C)C(=O)N2` [RP556] (H-RWCFKVCYKGICYKKCK-NH2; disulfide 3-16, 7-12), the MIC in the assay with C. acnes HL043PA1 was 4 µg/mL (≈ 1.86 µM); with C. acnes HL056PA1 it was 2 µg/mL (≈ 0.929 µM); with C. acnes HL072PA1, 8 µg/mL (≈ 3.72 µM); with C. acnes HL013PA1 it was 2 µg/mL (≈ 0.929 µM); with C. acnes ATCC11827, 8 µg/mL (≈ 3.72 µM); against C. acnes HL007PA1 it was 4 µg/mL (≈ 1.86 µM).
